Results taken from patent publication US9364467B2 (Salix Pharmaceuticals, Ltd, priority 2012, dated 2016).
Values after ≈ are worked out from the molar mass of the structure shown.

Key:
[1] = system: Enterobacteriaceae spp. strains; test: In vitro activity (MIC) against Enterobacteriaceae spp. strains
Bombesin BB1 = Bombesin BB1 (Homo sapiens, UniProt P28336); test: Radioligand binding assay, Bombesin BB1; details: CONC. 10 μM, hum
Method: Methods employed in this study have been adapted from the scientific literature to maximize reliability and reproducibility. Reference standards were run as an integral part of each assay to ensure the validity of the results obtained. Assays were performed under conditions described in the accompanying “Methods” section below. The literature reference(s) for each assay are in the “Literature References” section.
Where presented, IC50 values were determined by a non-linear, least squares regression analysis using MathIQ™ (ID Business Solutions Ltd., UK). Where inhibition constants (KI) are presented, the KI values were calculated using the equation of Cheng and Prusoff (Cheng, Y., Prusoff, W. H., Biochem. Pharmacol. 22:3099-3108, 1973) using the observed IC50 of the tested compound, the concentration of radioligand employed in the assay, and the historical values for the KD of the ligand (obtained experimentally at Ricerca Biosciences, LLC). Where presented, the Hill coefficient (nH), defining the slope of the competitive binding curve, was calculated using MathIQ™. […] Where IC50, KI, and/or nH data are presented without Standard Error of the Mean (SEM), data are insufficient to be quantitative, and the values presented (KI, IC50, nH) should be interpreted with caution. […]

Bombesin BB1, sequence (P28336 whole entry): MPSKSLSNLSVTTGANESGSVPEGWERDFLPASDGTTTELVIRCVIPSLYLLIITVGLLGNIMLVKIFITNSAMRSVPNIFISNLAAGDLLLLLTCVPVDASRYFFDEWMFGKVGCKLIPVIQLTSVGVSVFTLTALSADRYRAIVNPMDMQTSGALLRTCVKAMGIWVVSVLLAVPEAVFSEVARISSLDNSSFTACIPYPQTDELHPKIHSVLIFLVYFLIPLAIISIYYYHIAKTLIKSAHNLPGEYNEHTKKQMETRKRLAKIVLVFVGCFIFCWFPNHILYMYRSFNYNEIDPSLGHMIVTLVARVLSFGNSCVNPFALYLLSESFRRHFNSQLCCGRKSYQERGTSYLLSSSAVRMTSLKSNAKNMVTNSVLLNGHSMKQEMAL

SMILES: CO[C@H]1/C=C/O[C@@]2(C)Oc3c(C)c(O)c4c(O)c(c5c(nc6cc(C)ccn65)c4c3C2=O)NC(=O)/C(C)=C\C=C\[C@H](C)[C@H](O)[C@@H](C)[C@@H](O)[C@@H](C)[C@H](OC(C)=O)[C@@H]1C [Rifaximin, reference compound]
- MIC ([1]; Klebsiella aerogenes, E. aerogenes 1023): 32 µg/mL (≈ 40.7 µM)
- MIC ([1]; Klebsiella aerogenes, E. aerogenes 1030): 32 µg/mL (≈ 40.7 µM)
- MIC ([1]; Klebsiella aerogenes, E. aerogenes 1031): 32 µg/mL (≈ 40.7 µM)
- MIC ([1]; Klebsiella oxytoca, K. oxytoca 4): 32 µg/mL (≈ 40.7 µM)
- MIC ([1]; Klebsiella oxytoca, K. oxytoca 18): 32 µg/mL (≈ 40.7 µM)
- MIC ([1]; Klebsiella oxytoca, K. oxytoca 479): 32 µg/mL (≈ 40.7 µM)
- MIC ([1]; Klebsiella oxytoca, K. oxytoca 499): 32 µg/mL (≈ 40.7 µM)
- MIC ([1]; Klebsiella pneumoniae, K. pneumoniae 17): 32 µg/mL (≈ 40.7 µM)
- MIC ([1]; Klebsiella pneumoniae, K. pneumoniae 19): 32 µg/mL (≈ 40.7 µM)
- MIC ([1]; Klebsiella pneumoniae, K. pneumoniae 76): 32 µg/mL (≈ 40.7 µM)
- MIC ([1]; Klebsiella pneumoniae, K. pneumoniae 80): 32 µg/mL (≈ 40.7 µM)
- MIC ([1]; Klebsiella pneumoniae, K. pneumoniae 91): 32 µg/mL (≈ 40.7 µM)
- MIC ([1]; Klebsiella pneumoniae, K. pneumoniae 1064): 32 µg/mL (≈ 40.7 µM)
- MIC ([1]; Morganella morganii, M. morganii 42): 16 µg/mL (≈ 20.4 µM)
- MIC ([1]; Morganella morganii, M. morganii 48): 32 µg/mL (≈ 40.7 µM)
- MIC ([1]; Morganella morganii, M. morganii 50): 32 µg/mL (≈ 40.7 µM)
- MIC ([1]; Morganella morganii, M. morganii 57): 32 µg/mL (≈ 40.7 µM)
- MIC ([1]; Morganella morganii, M. morganii 67): 32 µg/mL (≈ 40.7 µM)
- MIC ([1]; Morganella morganii, M. morganii 101): 32 µg/mL (≈ 40.7 µM)
- MIC ([1]; Morganella morganii, M. morganii 105): 32 µg/mL (≈ 40.7 µM)
- MIC ([1]; Morganella morganii, M. morganii 108): 32 µg/mL (≈ 40.7 µM)
- MIC ([1]; Morganella morganii, M. morganii 453): 8 µg/mL (≈ 10.2 µM)
- MIC ([1]; Morganella morganii, M. morganii 458): 32 µg/mL (≈ 40.7 µM)
- MIC ([1]; Morganella morganii, M. morganii 461): 32 µg/mL (≈ 40.7 µM)
- MIC ([1]; Morganella morganii, M. morganii 462): 32 µg/mL (≈ 40.7 µM)
- MIC ([1]; Morganella morganii, M. morganii 923): 16 µg/mL (≈ 20.4 µM)
- MIC ([1]; Morganella morganii, M. morganii 932): 32 µg/mL (≈ 40.7 µM)
- MIC ([1]; Morganella morganii, M. morganii 935): 32 µg/mL (≈ 40.7 µM)
- MIC ([1]; Morganella morganii, M. morganii 1006): 8 µg/mL (≈ 10.2 µM)
- MIC ([1]; Proteus mirabilis, P. mirabilis 465): 32 µg/mL (≈ 40.7 µM)
- MIC ([1]; Proteus mirabilis, P. mirabilis 466): 32 µg/mL (≈ 40.7 µM)
- MIC ([1]; Proteus mirabilis, P. mirabilis 469): 32 µg/mL (≈ 40.7 µM)
- MIC ([1]; Proteus mirabilis, P. mirabilis 470): 16 µg/mL (≈ 20.4 µM)
- MIC ([1]; Proteus mirabilis, P. mirabilis 471): 8 µg/mL (≈ 10.2 µM)
- MIC ([1]; Proteus mirabilis, P. mirabilis 472): 8 µg/mL (≈ 10.2 µM)
- MIC ([1]; Proteus mirabilis, P. mirabilis 473): 16 µg/mL (≈ 20.4 µM)
- MIC ([1]; Proteus mirabilis, P. mirabilis 477): 32 µg/mL (≈ 40.7 µM)
- MIC ([1]; Proteus mirabilis, P. mirabilis 479): 32 µg/mL (≈ 40.7 µM)
- MIC ([1]; Proteus mirabilis, P. mirabilis 480): 32 µg/mL (≈ 40.7 µM)
- MIC ([1]; Proteus mirabilis, P. mirabilis 489): 32 µg/mL (≈ 40.7 µM)
- MIC ([1]; Proteus mirabilis, P. mirabilis 928): 32 µg/mL (≈ 40.7 µM)
- MIC ([1]; Proteus mirabilis, P. mirabilis 972): 32 µg/mL (≈ 40.7 µM)
- MIC ([1]; Proteus mirabilis, P. mirabilis 983): 16 µg/mL (≈ 20.4 µM)
- MIC ([1]; Proteus mirabilis, P. mirabilis 985): 32 µg/mL (≈ 40.7 µM)
- MIC ([1]; Proteus mirabilis, P. mirabilis 987): 32 µg/mL (≈ 40.7 µM)
- MIC ([1]; Proteus mirabilis, P. mirabilis 988): 8 µg/mL (≈ 10.2 µM)
- MIC ([1]; Proteus mirabilis, P. mirabilis 990): 32 µg/mL (≈ 40.7 µM)
- MIC ([1]; Proteus mirabilis, P. mirabilis 991): 32 µg/mL (≈ 40.7 µM)
- MIC ([1]; Proteus mirabilis, P. mirabilis 993): 16 µg/mL (≈ 20.4 µM)
- MIC ([1]; Proteus mirabilis, P. mirabilis 995): 32 µg/mL (≈ 40.7 µM)
- MIC ([1]; Proteus mirabilis, P. mirabilis 996): 32 µg/mL (≈ 40.7 µM)
- MIC ([1]; Proteus mirabilis, P. mirabilis 997): 32 µg/mL (≈ 40.7 µM)
- MIC ([1]; Proteus mirabilis, P. mirabilis 998): 8 µg/mL (≈ 10.2 µM)
- MIC ([1]; Providencia stuartii, P. stuartii 94): 32 µg/mL (≈ 40.7 µM)
- MIC ([1]; Providencia stuartii, P. stuartii 299): 16 µg/mL (≈ 20.4 µM)
- MIC ([1]; Providencia stuartii, P. stuartii 301): 32 µg/mL (≈ 40.7 µM)
- MIC ([1]; Providencia stuartii, P. stuartii 306): 16 µg/mL (≈ 20.4 µM)
- MIC ([1]; Providencia stuartii, P. stuartii 312): 32 µg/mL (≈ 40.7 µM)
- MIC ([1]; Providencia stuartii, P. stuartii 459): 32 µg/mL (≈ 40.7 µM)
- MIC ([1]; S. odorifera 59): 32 µg/mL (≈ 40.7 µM)
- MIC ([1]; Serratia marcescens, S. marcescens 38): 32 µg/mL (≈ 40.7 µM)
- MIC ([1]; Serratia marcescens, S. marcescens 45): 32 µg/mL (≈ 40.7 µM)
- MIC ([1]; Serratia marcescens, S. marcescens 59): 32 µg/mL (≈ 40.7 µM)
- MIC ([1]; Serratia marcescens, S. marcescens 63): 32 µg/mL (≈ 40.7 µM)
- MIC ([1]; Stenotrophomonas maltophilia, S. maltophilia 1203): 32 µg/mL (≈ 40.7 µM)
- MIC ([1]; Stenotrophomonas maltophilia, S. maltophilia 1208): 32 µg/mL (≈ 40.7 µM)
- inhibition at 10 µM (Bombesin BB1): < 50%
